Test system: Human dermal fibroblasts
Experiment: Cell activity (AlamarBlue) of cells irradiated with UV through a UV wavelength conversion substance
Assay type: cell-based
Details: for cell activity at UV irradiation (relative fluorescence intensity): UV dose 0, 10, 25, 50, 75 or 100 mJ/cm^2, FIG. 3
Procedure: 1. Human dermal fibroblasts and human skin keratinocytes purchased from Kurabo Industries Ltd. were used. A cell suspension (1 mL) stored in liquid nitrogen was thawed in a water bath (37° C.) to an extent that small ice pellets remained, and then diluted with 9 mL of warm medium.
10. Depending on the cell type, fibroblasts were resuspended in FGM or KGM at a concentration of 2×10^4 cells/well (500 μL), and keratinocytes were resuspended in FGM or KGM at a concentration of 4×10^4 cells/well (500 μL) and plated 24-well plates.
11. Cells were seeded in 24-well plates and the media were changed periodically (once every 2 days for fibroblasts and once every 2 to 3 days for keratinocytes) and the cells were grown until 60 to 70% confluence (depending on the type of experiment) was reached. (Note: Fibroblasts should reach the desired confluency in 24 hours at a cell density of 2×10^4 cells/well. When the cell density is low, for example, 1×10^4 cells/well, it takes 48 hours for fibroblasts to reach the desired confluency.)
12. 24 hours before irradiation, the medium was changed to a supplement-free medium (in the case of keratinocytes) or a medium containing a low concentration of serum (0.5% FCS) (in the case of fibroblasts).
1. A solar simulator was turned on at least 30 minutes before irradiation to warm up a lamp. The solar simulator was set to use a UG11 filter. UG11 filters are filters that allow only UVB to pass and cut light of other wavelengths.
3. The cells prepared in Experiment 1-2 were washed once with warm PBS.
4. To each well was added 0.5 mL of a warmed Martinez solution (145 mM NaCl, 5.5 mM KCl, 1.2 mM MgCl2.6H2O, 1.2 mM NaH2PO4.2H2O, 7.5 mM HEPES, 1 mM CaCl2, and 10 mM D-glucose).
5. As depicted in FIG. 1, cell wells were placed on a plate. Then, 0.4 ml of a solution containing the UV wavelength conversion substances (1) to (4) prepared in Experiment 1-1 was injected into each well of a 24-well plate. […]
4. Fluorescence measurement values at 544 nm/590 nm were read using a fluorometer (OPwave +, Ocean Photonics). […]

## C-phycocyanin
0.4% C-phycocyanin solution
  cell activity at UV irradiation (relative fluorescence intensity): the decrease in cell activity was suppressed
2% C-phycocyanin solution
  cell activity at UV irradiation (relative fluorescence intensity): the cell activity was even increased
pre-irradiation 400 mJ/cm^2 without substance, then UV 0-200 mJ/cm^2 through 0.4% or 2% C-phycocyanin (effect equivalent at both), FIG. 5
  cell activity of cells having activity temporarily reduced by UV (relative fluorescence intensity): cell activity was recovered
